In ChEMBL document CHEMBL5303573, “Mapping human microbiome drug metabolism by gut bacteria and their genes” (Nature, 2019):

Key:
[1] = akkermansia muciniphila, 12 h, 2 µM
Description: The drug is tested on Akkermansia muciniphila strain: ATCC BAA-835 for biotransformation. The drug concentrations were measured before and after a 12-h incubation by liquid-chromatography-coupled mass spectrometry (LC–MS)

[2] = The drug is tested on Eubacterium hallii strain: DSM3353 for biotransformation. The drug concentrations were measured before and after a 12-h incubation by liquid-chromatography-coupled mass spectrometry (LC–MS); details: anaerobutyricum hallii, 2 µM
[3] = The drug is tested on Odoribacter splanchnicus strain: fecal isolate for biotransformation. The drug concentrations were measured before and after a 12-h incubation by liquid-chromatography-coupled mass spectrometry (LC–MS); details: 2 µM
[4] = The drug is tested on Bacteroides fragilis strain: HMW615 for biotransformation. The drug concentrations were measured before and after a 12-h incubation by liquid-chromatography-coupled mass spectrometry (LC–MS); details: 2 µM
[5] = The drug is tested on Edwardsiella tarda strain: ATCC23685 for biotransformation. The drug concentrations were measured before and after a 12-h incubation by liquid-chromatography-coupled mass spectrometry (LC–MS); details: 2 µM
[6] = The drug is tested on Alistipes indistinctus strain: DSM22520 for biotransformation. The drug concentrations were measured before and after a 12-h incubation by liquid-chromatography-coupled mass spectrometry (LC–MS); details: 2 µM
[7] = The drug is tested on Escherichia coli strain: BW25113 for biotransformation. The drug concentrations were measured before and after a 12-h incubation by liquid-chromatography-coupled mass spectrometry (LC–MS); details: 2 µM
[8] = The drug is tested on Clostridium ramosum strain: DSM1402 for biotransformation. The drug concentrations were measured before and after a 12-h incubation by liquid-chromatography-coupled mass spectrometry (LC–MS); details: thomasclavelia ramosa, 2 µM
[9] = The drug is tested on Collinsella intestinalis strain: DSM13280 for biotransformation. The drug concentrations were measured before and after a 12-h incubation by liquid-chromatography-coupled mass spectrometry (LC–MS); details: 2 µM
[10] = The drug is tested on Bacteroides vulgatus strain: ATCC8482 for biotransformation. The drug concentrations were measured before and after a 12-h incubation by liquid-chromatography-coupled mass spectrometry (LC–MS); details: phocaeicola vulgatus, 2 µM
[11] = bacteroides stercoris, 12 h, 2 µM
Description: The drug is tested on Bacteroides stercoris strain: ATCC43183 for biotransformation. The drug concentrations were measured before and after a 12-h incubation by liquid-chromatography-coupled mass spectrometry (LC–MS)

[12] = The drug is tested on Bacteroides dorei strain: DSM17855 for biotransformation. The drug concentrations were measured before and after a 12-h incubation by liquid-chromatography-coupled mass spectrometry (LC–MS); details: phocaeicola dorei, 2 µM
[13] = bacteroides thetaiotaomicron, 12 h, 2 µM
Description: The drug is tested on Bacteroides thetaiotaomicron strain: 3731 for biotransformation. The drug concentrations were measured before and after a 12-h incubation by liquid-chromatography-coupled mass spectrometry (LC–MS)

[14] = The drug is tested on Bacteroides finegoldii strain: DSM17565 for biotransformation. The drug concentrations were measured before and after a 12-h incubation by liquid-chromatography-coupled mass spectrometry (LC–MS); details: 2 µM
[15] = The drug is tested on Clostridium sporogenes strain: ATCC15579 for biotransformation. The drug concentrations were measured before and after a 12-h incubation by liquid-chromatography-coupled mass spectrometry (LC–MS); details: 2 µM
[16] = The drug is tested on Bacteroides uniformis strain: ATCC8492 for biotransformation. The drug concentrations were measured before and after a 12-h incubation by liquid-chromatography-coupled mass spectrometry (LC–MS); details: 2 µM
[17] = The drug is tested on Blautia hansenii strain: DSM20583 for biotransformation. The drug concentrations were measured before and after a 12-h incubation by liquid-chromatography-coupled mass spectrometry (LC–MS); details: 2 µM
[18] = The drug is tested on Anaerococcus hydrogenalis strain: DSM7454 for biotransformation. The drug concentrations were measured before and after a 12-h incubation by liquid-chromatography-coupled mass spectrometry (LC–MS); details: 2 µM
[19] = The drug is tested on Clostridium scindens strain: ATCC35704 for biotransformation. The drug concentrations were measured before and after a 12-h incubation by liquid-chromatography-coupled mass spectrometry (LC–MS); details: 2 µM
[20] = The drug is tested on Collinsella aerofaciens strain: ATCC25986 for biotransformation. The drug concentrations were measured before and after a 12-h incubation by liquid-chromatography-coupled mass spectrometry (LC–MS); details: 2 µM

| SMILES | Bacterial Biotransformation [1] | Bacterial Biotransformation [2] | Bacterial Biotransformation [3] | Bacterial Biotransformation [4] | Bacterial Biotransformation [5] | Bacterial Biotransformation [6] | Bacterial Biotransformation [7] | Bacterial Biotransformation [8] | Bacterial Biotransformation [9] | Bacterial Biotransformation [10] | Bacterial Biotransformation [11] | Bacterial Biotransformation [12] | Bacterial Biotransformation [13] | Bacterial Biotransformation [14] | Bacterial Biotransformation [15] | Bacterial Biotransformation [16] | Bacterial Biotransformation [17] | Bacterial Biotransformation [18] | Bacterial Biotransformation [19] | Bacterial Biotransformation [20] |
| --- | --- | --- | --- | --- | --- | --- | --- | --- | --- | --- | --- | --- | --- | --- | --- | --- | --- | --- | --- | --- |
| CCC(COC(=O)c1cc(OC)c(OC)c(OC)c1)(c1ccccc1)N(C)C.O=C(O)/C=C\C(=O)O (centres undefined) | Compound metabolized | Compound metabolized | Compound metabolized | Compound NOT metabolized | Compound metabolized | Compound metabolized | Compound metabolized | Compound NOT metabolized | Compound metabolized | Compound NOT metabolized | Compound metabolized | Compound metabolized | Compound metabolized | Compound metabolized | Compound metabolized | Compound metabolized | Compound metabolized | Compound metabolized | Compound metabolized |  |
| CC1=C(CC(=O)O)c2cc(F)ccc2/C1=C\c1ccc([S+](C)[O-])cc1 (centres undefined) | Compound NOT metabolized | Compound NOT metabolized | Compound NOT metabolized | Compound NOT metabolized | Compound NOT metabolized | Compound NOT metabolized | Compound NOT metabolized | Compound NOT metabolized | Compound NOT metabolized | Compound NOT metabolized | Compound NOT metabolized | Compound NOT metabolized | Compound NOT metabolized | Compound NOT metabolized | Compound NOT metabolized | Compound NOT metabolized | Compound NOT metabolized | Compound NOT metabolized | Compound NOT metabolized | Compound NOT metabolized |
| O=C(NCc1ccccc1)OCCO [BURAMATE] | Compound NOT metabolized | Compound NOT metabolized | Compound NOT metabolized | Compound NOT metabolized | Compound NOT metabolized | Compound NOT metabolized | Compound NOT metabolized | Compound NOT metabolized | Compound NOT metabolized | Compound NOT metabolized | Compound NOT metabolized | Compound NOT metabolized | Compound NOT metabolized | Compound NOT metabolized | Compound NOT metabolized | Compound NOT metabolized | Compound NOT metabolized |  | Compound NOT metabolized | Compound NOT metabolized |
| C[C@]12C=CC(=O)C=C1CC[C@@H]1[C@@H]2C(=O)C[C@@]2(C)[C@H]1CC[C@]2(O)C(=O)CO [PREDNISONE] | Compound NOT metabolized | Compound NOT metabolized | Compound NOT metabolized | Compound NOT metabolized | Compound NOT metabolized | Compound NOT metabolized | Compound NOT metabolized | Compound NOT metabolized | Compound NOT metabolized | Compound NOT metabolized |  | Compound NOT metabolized | Compound NOT metabolized | Compound NOT metabolized | Compound NOT metabolized | Compound NOT metabolized | Compound NOT metabolized | Compound NOT metabolized | Compound NOT metabolized | Compound NOT metabolized |
| CNNCc1ccc(C(=O)NC(C)C)cc1 [PROCARBAZINE] | Compound NOT metabolized | Compound NOT metabolized | Compound NOT metabolized | Compound metabolized | Compound NOT metabolized | Compound NOT metabolized | Compound NOT metabolized | Compound NOT metabolized | Compound NOT metabolized | Compound NOT metabolized | Compound NOT metabolized | Compound NOT metabolized | Compound NOT metabolized | Compound NOT metabolized | Compound NOT metabolized | Compound NOT metabolized | Compound NOT metabolized | Compound NOT metabolized | Compound NOT metabolized | Compound NOT metabolized |
| CN1C(C(=O)Nc2ccccn2)=C(O)c2sccc2S1(=O)=O [TENOXICAM] | Compound NOT metabolized | Compound NOT metabolized | Compound NOT metabolized | Compound NOT metabolized | Compound NOT metabolized | Compound NOT metabolized | Compound NOT metabolized | Compound NOT metabolized | Compound NOT metabolized | Compound NOT metabolized | Compound NOT metabolized | Compound NOT metabolized | Compound NOT metabolized |  | Compound NOT metabolized | Compound NOT metabolized | Compound NOT metabolized | Compound NOT metabolized |  | Compound NOT metabolized |
| CC(CN(C)C)CN1c2ccccc2CCc2ccccc21.O=C(O)/C=C\C(=O)O (centres undefined) [TRIMIPRAMINE MALEATE] | Compound NOT metabolized | Compound NOT metabolized | Compound NOT metabolized | Compound NOT metabolized | Compound NOT metabolized | Compound NOT metabolized | Compound NOT metabolized | Compound NOT metabolized | Compound NOT metabolized | Compound NOT metabolized | Compound NOT metabolized | Compound NOT metabolized | Compound NOT metabolized | Compound NOT metabolized | Compound NOT metabolized | Compound NOT metabolized | Compound NOT metabolized | Compound NOT metabolized |  | Compound NOT metabolized |
